# According to patent EP2457900A1, “New pyrazole derivatives having CRTh2 antagonistic behaviour” (Almirall, S.A., priority 2010, dated 2012):
# Target: T1, CRTh2 receptor (Homo sapiens, UniProt Q9Y5Y4)
# T1 construct: expressed in transfected cells; host or cells: CHO.K1 cells (membranes)
# T1 sequence (Q9Y5Y4 1-395): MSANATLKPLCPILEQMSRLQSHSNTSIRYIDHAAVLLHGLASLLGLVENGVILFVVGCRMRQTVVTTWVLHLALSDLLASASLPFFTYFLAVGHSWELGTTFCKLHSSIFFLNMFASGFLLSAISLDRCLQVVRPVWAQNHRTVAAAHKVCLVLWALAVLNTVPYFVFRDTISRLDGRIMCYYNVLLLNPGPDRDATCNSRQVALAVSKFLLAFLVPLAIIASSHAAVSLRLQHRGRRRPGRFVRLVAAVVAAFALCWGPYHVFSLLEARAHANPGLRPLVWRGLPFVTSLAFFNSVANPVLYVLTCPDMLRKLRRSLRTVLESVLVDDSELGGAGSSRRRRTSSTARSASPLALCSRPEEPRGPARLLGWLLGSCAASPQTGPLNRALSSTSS
# Assay: CRTh2 GTPγS antagonism binding assay
# Type: biochemical
# Settings: membranes from CHO.K1 cells stably overexpressing the CRTh2 receptor; [35S]-GTPγS 0.1 nM; PGD2 at 50 nM (EC80); compound pre-incubated 1 h; read-out: GTPγ Binding
# Method: CRTh2 GTPγS antagonism binding assay
# The assay is performed using membranes obtained from CHO.K1 cells stably overexpressing the CRTh2 receptor and [^35S]-GTPγS as radioligand. Assay is performed pre-incubating 4-8 µg of membranes per well with the compound to be tested for 1 h, followed by incubation with PGD2 at 50 nM (EC80), 0.1 nM [^35S]-GTPγS in incubation buffer (20 mM HEPES, 10 mM MgCl2, 100 mM NaCl, 10 µM GDP, 10 µg/ml Saponine and 0.2% BSA) for 2 h at room temperature. The reaction is terminated by filtering in GF/C plates pre-treated with 20 mM HEPES, 10 mM MgCl2, 100 mM NaCl and washing 6 times with wash buffer (20 mM NaH2PO4, 20 mM Na2HPO4). After washing, plates are dried and scintillation buffer Optiphase added. The radioactivity retained in the filter is counted using a Microbeta liquid scintillation counter.
row,IC50 [µM],Compound
1,0.074,"Cc1c(CC(=O)O)c(-c2ccccc2)nn1Cc1ccccc1S(=O)(=O)N1CCOCC1 [Example 23, {5-Methyl-1-[2-(morpholin-4-ylsulfonyl)benzyl]-3-phenyl-1H-pyrazol-4-yl}acetic acid]"
2,0.086,"Cc1nn(Cc2ccccc2S(=O)(=O)c2ccccc2)c(C)c1CC(=O)O [Example 13, {3,5-Dimethyl-1-[2-(phenylsulfonyl)benzyl]-1H-pyrazol-4-yl}acetic acid]"
3,0.105,"Cc1c(CC(=O)O)c(-c2ccccc2)nn1Cc1ccccc1Cc1ccccc1 [Example 24, [1-(2-Benzylbenzyl)-5-methyl-3-phenyl-1H-pyrazol-4-yl]acetic acid]"
4,0.25,"Cc1nn(-c2cccc(NC(=O)[C@@H]3C[C@H]3c3ccccc3)c2)c(C)c1CC(=O)O (relative stereo) [Example 1, {3,5-Dimethyl-1-[3-({[trans-2-phenylcyclopropyl]carbonyl}amino)phenyl]-1H-pyrazol-4-yl}acetic acid]"
5,0.066,"Cc1c(CC(=O)O)c(-c2ccccc2)nn1Cc1ccccc1S(=O)(=O)N1CCCCC1 [Example 30, {5-Methyl-3-phenyl-1-[2-(piperidin-1-ylsulfonyl)benzyl]-1H-pyrazol-4-yl}acetic acid]"
6,0.16,"Cc1c(CC(=O)O)c(=O)[nH]n1Cc1ccccc1S(=O)(=O)c1ccccc1 [Example 29, {3-Hydroxy-5-methyl-1-[2-(phenylsulfonyl)benzyl]-1H-pyrazol-4-yl}acetic acid]"
7,0.024,"Cc1c(CC(=O)O)c(-c2ccc(Cl)cc2)nn1Cc1ccccc1S(=O)(=O)c1ccccc1 [Example 26, {3-(4-Chlorophenyl)-5-methyl-1-[2-(phenylsulfonyl)benzyl]-1H-pyrazol-4-yl}acetic acid]"
8,0.37,"Cc1ccc(NC(=O)Nc2cccc(Cn3nc(C)c(CC(=O)O)c3C)c2)cc1 [Example 4, {3,5-Dimethyl-1-[3-({[(4-methylphenyl)amino]carbonyl}amino)benzyl]-1H-pyrazol-4-yl}acetic acid]"
9,0.094,"Cc1c(CC(=O)O)c(-c2ccc(Cl)cc2)nn1Cc1ccccc1S(=O)(=O)N1CCOCC1 [Example 25, {3-(4-Chlorophenyl)-5-methyl-1-[2-(morpholin-4-ylsulfonyl)benzyl]-1H-pyrazol-4-yl}acetic acid]"

row,Compound,IC50 [µM]
1,"Cc1c(CC(=O)O)c(-c2ccccc2)nn1Cc1ccccc1S(=O)(=O)c1ccccc1 [Example 15, {5-Methyl-3-phenyl-1-[2-(phenylsulfonyl)benzyl]-1H-pyrazol-4-yl}acetic acid]",0.0068
